Data on 9 molecules can be found in ChEMBL document CHEMBL1201862, “PubChem BioAssay data set” (2004).

Test systems include 786-0; A498; COLO 205; DU-145; HL-60; Hs-578T; LOX IMVI; M14; OVCAR-3; OVCAR-8; PC-3; RPMI-8226; SK-MEL-5; SNB-75; SR; T47D; TK-10; U-251; UACC-257; UO-31.
What all share (test): NCI-60 cell line screen, 48 h

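Growth conditions: 96-well plates. Treatment: test compound, 48 hours, 5 concentrations. Analysis: linear interpolation between bracketing concentrations; unreached endpoints set to highest concentration. At the GI50, growth is halved.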 Calls of active or inactive are those of the source. Cut-off read from the data, not from the text of the source: active = GI50 up to about 1.1 µM and inactive = higher.

As for `Cc1ccc(S(=O)(=O)NNC(C[N+](=O)[O-])c2ccccc2)cc1` (stereo not given), the GI50 was 22.6 µM (inactive) in the test on 786-0; 16.1 µM (inactive) in the test on A498; 14.4 µM (inactive) in the test with COLO 205; 44.5 µM (inactive) with DU-145; 3.71 µM (inactive) in the test with HL-60; 44.4 µM (inactive) with Hs-578T. Also, the GI50 was 3.64 µM (inactive) in the test on LOX IMVI; 5.65 µM (inactive) with M14; 21.7 µM (inactive) in the test on OVCAR-3; 22 µM (inactive) in the test on OVCAR-8; 57.9 µM (inactive) in the test on PC-3; 3.56 µM (inactive) in the test on RPMI-8226. Besides, the GI50 is 19.4 µM (inactive) with SK-MEL-5; 22.7 µM (inactive) in the test with SNB-75; 1.06 µM (active) in the test on SR; 10.9 µM (inactive) with T47D; 24.2 µM (inactive) in the test on TK-10; 14.5 µM (inactive) in the test with U-251. For the same molecule, the values for the GI50 in the test on UACC-257 and in the test on UO-31 were 19.7 µM (inactive) and 22.3 µM (inactive), respectively.
Regarding `Cc1c2ccccc2c(CSC(=N)N)c2ccccc12`, the GI50 with 786-0 is 0.143 µM (active); with A498, 0.19 µM (active); with COLO 205, 0.14 µM (active); in the test with DU-145 it was 0.084 µM (active); in the test on HL-60, 0.111 µM (active); in the test on Hs-578T it was 0.172 µM (active). The GI50 in the test on LOX IMVI is 0.202 µM (active); in the test on M14 it was 0.211 µM (active); in the test with OVCAR-3, 0.264 µM (active); with OVCAR-8, 0.199 µM (active); in the test with PC-3, 0.23 µM (active); in the test on RPMI-8226, 0.0841 µM (active). Further, the GI50 with SK-MEL-5 was 0.162 µM (active); in the test with SNB-75 it was 0.178 µM (active); in the test on SR, 0.0194 µM (active); in the test with T47D it was 0.535 µM (active); in the test on TK-10, 0.222 µM (active); in the test on U-251, 0.176 µM (active). The GI50 was 0.187 µM (active) with UACC-257 and 0.181 µM (active) with UO-31.
Consider `CCN(CC)C1Oc2cc3c(cc2C(c2cc(OC)c(OC)c(OC)c2)C1C)OCO3` (stereo not given), for which the GI50 is 1.33 µM (inactive) in the test on 786-0; 1.59 µM (inactive) with A498; 0.875 µM (active) in the test with COLO 205; 1.77 µM (inactive) in the test with DU-145; 0.242 µM (active) with HL-60; 0.759 µM (active) with Hs-578T. Moreover, the GI50 in the test with LOX IMVI was 0.762 µM (active); in the test on M14 it was 0.64 µM (active); in the test with OVCAR-3, 0.387 µM (active); in the test on OVCAR-8, 1.39 µM (inactive); in the test with PC-3, 0.979 µM (active); in the test with RPMI-8226, 0.927 µM (active). Moreover, the GI50 was 0.408 µM (active) in the test with SK-MEL-5; 4.25 µM (inactive) in the test with SNB-75; 0.256 µM (active) in the test with SR; 9.35 µM (inactive) in the test with T47D; 26.5 µM (inactive) with TK-10; 0.6 µM (active) with U-251. In addition, the GI50 with UACC-257 is 2.88 µM (inactive); in the test on UO-31, 2.56 µM (inactive).
Turning to `COc1cc(OC)cc(Oc2nc3ccccc3nc2C(F)(F)F)c1`, the GI50 in the test on 786-0 is > 100 µM (inactive); in the test with A498, 22.9 µM (inactive); in the test on COLO 205, > 100 µM (inactive); in the test with DU-145, > 100 µM (inactive); in the test with HL-60, 22.3 µM (inactive); in the test with Hs-578T, 72.1 µM (inactive). Further, the GI50 in the test with LOX IMVI was > 100 µM (inactive); in the test on M14 it was 53.8 µM (inactive); in the test with OVCAR-3, > 100 µM (inactive); with OVCAR-8, > 100 µM (inactive); in the test with PC-3, 89.7 µM (inactive); in the test on RPMI-8226 it was > 100 µM (inactive). Besides, the GI50 was 76.7 µM (inactive) with SK-MEL-5; 21.9 µM (inactive) in the test on SNB-75; 6.1 µM (inactive) in the test on SR; > 100 µM (inactive) in the test on T47D; > 100 µM (inactive) in the test on TK-10; 27.2 µM (inactive) in the test with U-251. Besides, the GI50 with UACC-257 and with UO-31 was > 100 µM (inactive) each time.
`Nc1nc(-c2ccccc2)nc2oc(-c3cccs3)nc12`: the GI50 in the test on 786-0, with A498, with COLO 205, in the test with DU-145, in the test on HL-60 and in the test on Hs-578T was > 100 µM (inactive) in each case. Besides, the GI50 in the test with LOX IMVI, with M14, in the test with OVCAR-3, in the test with OVCAR-8, in the test on PC-3 and in the test with RPMI-8226 was > 100 µM (inactive) throughout. Also, the GI50 in the test with SK-MEL-5, in the test on SNB-75, in the test with SR, in the test on T47D, in the test with TK-10 and in the test on U-251 was > 100 µM (inactive) throughout. Further, the GI50 in the test with UACC-257 and with UO-31 was > 100 µM (inactive) in each case.
As to `CCCC(=O)NC(Nc1ccc(S(=O)(=O)Nc2nc(C)cc(C)n2)cc1)(C(F)(F)F)C(F)(F)F`, the GI50 with 786-0, in the test on A498, in the test with COLO 205, in the test with DU-145, in the test on HL-60 and with Hs-578T was > 100 µM (inactive) throughout. Further, the GI50 in the test on LOX IMVI, with M14, in the test on OVCAR-3, in the test with OVCAR-8, in the test with PC-3 and in the test with RPMI-8226 was > 100 µM (inactive) each time. Besides, the GI50 in the test with SK-MEL-5, in the test with SNB-75, in the test on SR, with T47D, in the test on TK-10 and in the test on U-251 was > 100 µM (inactive) in each case. Moreover, the GI50 in the test with UACC-257 and with UO-31 was > 100 µM (inactive) in each case.
As to `CCCCN(C)C(=O)C1=C(C)NC(C)=C(C(=O)N(C)CCCC)C1`, the GI50 in the test on 786-0 was > 100 µM (inactive); with A498 it was > 100 µM (inactive); with COLO 205, > 100 µM (inactive); with DU-145, > 100 µM (inactive); in the test on HL-60 it was 54.1 µM (inactive); with Hs-578T, > 100 µM (inactive). In addition, the GI50 in the test on LOX IMVI, in the test on M14, in the test on OVCAR-3, in the test on OVCAR-8, with PC-3 and in the test on RPMI-8226 was > 100 µM (inactive) each time. Besides, the GI50 with SK-MEL-5 was > 100 µM (inactive); in the test on SNB-75, 50.7 µM (inactive); with SR it was 83.9 µM (inactive); with T47D it was 54.7 µM (inactive); with TK-10, > 100 µM (inactive); with U-251, > 100 µM (inactive). Also, the GI50 in the test with UACC-257 is > 100 µM (inactive); in the test on UO-31, 61.1 µM (inactive).
For the molecule `CC(=O)Oc1ccc(-c2nnc(-c3ccc(OC(C)=O)cc3)nn2)cc1`, the GI50 with 786-0 is > 100 µM (inactive); in the test on A498, > 100 µM (inactive); in the test with COLO 205, > 100 µM (inactive); in the test with DU-145 it was > 100 µM (inactive); in the test on HL-60, 29.8 µM (inactive); in the test with Hs-578T, > 100 µM (inactive). Besides, the GI50 with LOX IMVI, in the test on M14, with OVCAR-3, with OVCAR-8, in the test with PC-3 and in the test with RPMI-8226 was > 100 µM (inactive) throughout. Further, the GI50 with SK-MEL-5 is > 100 µM (inactive); in the test on SNB-75, > 100 µM (inactive); in the test with SR it was 20.4 µM (inactive); with T47D, > 100 µM (inactive); in the test with TK-10 it was > 100 µM (inactive); in the test with U-251, > 100 µM (inactive). In addition, the GI50 is > 100 µM (inactive) in the test on UACC-257 and 64 µM (inactive) in the test with UO-31.
With `S=c1sc2c(s1)SCCCCSCCCCSc1sc(=S)sc1SCCCCSCCCCS2`, the GI50 with 786-0 is 68.5 µM (inactive); in the test with A498, > 100 µM (inactive); in the test on COLO 205, > 100 µM (inactive); in the test with DU-145, > 100 µM (inactive); in the test on HL-60, > 100 µM (inactive); in the test with Hs-578T, 30.2 µM (inactive). Besides, the GI50 in the test on LOX IMVI, in the test with M14, with OVCAR-3, in the test on OVCAR-8, with PC-3 and with RPMI-8226 was > 100 µM (inactive) each time. The GI50 with SK-MEL-5 was > 100 µM (inactive); in the test on SNB-75, 18.6 µM (inactive); in the test on SR, > 100 µM (inactive); in the test with T47D, > 100 µM (inactive); in the test on TK-10, > 100 µM (inactive); with U-251 it was > 100 µM (inactive). For the same molecule, the GI50 in the test on UACC-257 and in the test with UO-31 was > 100 µM (inactive) throughout.
